Measured values taken from US8828991B2, “Azacyclyl-substituted arylthienopyrimidinones, process for their preparation and their use as medicaments” (Sanofi, priority 2006, dated 2014).

Molecular target: T1, human MCH receptor (Homo sapiens, UniProt Q99705)
T1 construct: expressed in transfected cells
Assay: calcium immobilization assay: functional IC50 of MCH1R antagonists (cellular calcium flux, FLIPR)
Type: cell-based
Details: recombinant HEK293 cell line expressing the human MCH receptor, calcium flux after addition of agonist (MCH)
From the text: Influence on the MCH receptor in vitro; determination of functional IC50 values of MCH1R antagonists
Cloning of the cDNA for the human MCH receptor, preparation of a recombinant HEK293 cell line which expresses the human MCH receptor, and functional measurements with the recombinant cell line took place in analogy to the description by Audinot et al. (J. Biol. Chem. 276, 13554-13562, 2001). A difference from the reference was, however, the use of the plasmid pEAK8 from EDGE Biosystems (JSA) for the construction of the expression vector. The host used for the transfection was a transformed HEK cell line named “PEAK Stable Cells” (likewise from EDGE Biosystems). Functional measurements of the cellular calcium flux after addition of agonist (MCH) in the presence of ligand of the invention took place with the aid of the FLIPR apparatus from Molecular Devices (USA), using protocols of the apparatus manufacturer. The compounds of the invention show a significant inhibition (>30%) of the signal induced by the agonist at a concentration of 100 μM, preferably at 10 μM, particularly preferably at 1 μM, very particularly preferably at 100 nM and even more particularly preferably at 10 nM.

T1 sequence (Q99705 whole entry): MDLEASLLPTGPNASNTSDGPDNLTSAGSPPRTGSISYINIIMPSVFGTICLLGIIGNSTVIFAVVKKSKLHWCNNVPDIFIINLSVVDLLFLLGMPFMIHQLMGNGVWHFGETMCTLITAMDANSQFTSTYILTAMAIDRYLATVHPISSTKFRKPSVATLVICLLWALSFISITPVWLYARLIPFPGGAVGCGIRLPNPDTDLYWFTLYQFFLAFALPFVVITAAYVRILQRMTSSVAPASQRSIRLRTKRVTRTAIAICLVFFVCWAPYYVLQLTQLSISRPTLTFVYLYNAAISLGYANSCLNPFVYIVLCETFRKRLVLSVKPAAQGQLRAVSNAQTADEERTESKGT

SMILES	IC50 [nM]
CC(C)C(O)C#Cc1cc2ncn(-c3ccc(N4CCCN(C)CC4)cc3)c(=O)c2s1 (stereo not drawn) [Example 26]	1100
C[C@@H](O)C#Cc1cc2ncn(-c3ccc(N4CC[C@@H](N5CCCC5)C4)c(F)c3)c(=O)c2s1 [Example 42]	180
CS(=O)(=O)CCN1CCCN(c2ccc(-n3cnc4cc(C#CC5CC5)sc4c3=O)cc2)CC1 [Example 44, 6-Cyclopropylethynyl-3-{4-[4-(2-methanesulfonyl-ethyl)-[1,4]diazepan-1-yl]-phenyl}-3H-thieno[3,2-d]pyrimidin-4-one]	740
CC(O)C#Cc1cc2ncn(-c3ccc(N4CC[C@@H](N(C)C)C4)c(F)c3)c(=O)c2s1 (stereo partly drawn) [Example 49]	180
COCCCc1cc2ncn(-c3ccc(N4CC[C@@H](N5CCCC5)C4)c(F)c3)c(=O)c2s1 [Example 61]	560
CCC(O)CCc1cc2ncn(-c3ccc(N4CC[C@@H](N5CCCC5)C4)c(F)c3)c(=O)c2s1 (stereo partly drawn) [Example 63]	240
CCO/C=C\c1cc2ncn(-c3ccc(N4CCCN(C)CC4)cc3)c(=O)c2s1 [Example 74, 6-((Z)-2-Ethoxyvinyl)-3-[4-(4-methyl[1,4]diazepan-1-yl)phenyl]-3H-thieno[3,2-d]pyrimidin-4-one]	2950
CN1CCCN(c2ccc(-n3cnc4cc(C(=O)C5CCCC5)sc4c3=O)cc2)CC1 [Example 76, 6-Cyclopentanecarbonyl-3-[4-(4-methyl[1,4]diazepan-1-yl)phenyl]-3H-thieno[3,2-d]pyrimidin-4-one]	8740
CN1CCCN(c2ccc(-n3cnc4cc(C(O)C5CCCC5)sc4c3=O)cc2)CC1 (stereo not drawn) [Example 77, 6-(Cyclopentylhydroxymethyl)-3-[4-(4-methyl[1,4]diazepan-1-yl)phenyl]-3H-thieno[3,2-d]-pyrimidin-4-one]	9030

Next, values leading:

IC50 [nM]	SMILES
380	CC(O)C#Cc1cc2ncn(-c3ccc(N4CC[C@@H](N(C)C)C4)cc3)c(=O)c2s1 (stereo partly drawn) [Example 30, 3-[4-((R)-3-Dimethylaminopyrrolidin-1-yl)phenyl]-6-(3-hydroxybut-1-ynyl)-3H-thieno[3,2-d]pyrimidin-4-one]
1350	CN(C)[C@@H]1CCN(c2ccc(-n3cnc4cc(C#CC5(O)CCCC5)sc4c3=O)cc2)C1 [Example 32]
440	CC(O)C#Cc1cc2ncn(-c3ccc(N4CC[C@@H](N(C)CCS(C)(=O)=O)C4)cc3)c(=O)c2s1 (stereo partly drawn) [Example 38]
920	COCC#Cc1cc2ncn(-c3ccc(N4CC[C@@H](N(C)CCS(C)(=O)=O)C4)cc3)c(=O)c2s1 [Example 39]
660	CCC(O)C#Cc1cc2ncn(-c3ccc(N4CC[C@@H](N(C)CCS(C)(=O)=O)C4)cc3)c(=O)c2s1 (stereo partly drawn) [Example 40]
110	CN(C)[C@@H]1CCN(c2ccc(-n3cnc4cc(C#CC5CC5)sc4c3=O)cc2)C1 [Example 45, 6-Cyclopropylethynyl-3-[4-((R)-3-dimethylamino-pyrrolidin-1-yl)-phenyl]-3H-thieno[3,2-d]pyrimidin-4-one]
230	COCC#Cc1cc2ncn(-c3ccc(N4CC[C@@H](N(C)C)C4)c(F)c3)c(=O)c2s1 [Example 47]
320	CN(CCS(C)(=O)=O)[C@@H]1CCN(c2ccc(-n3cnc4cc(CCC5CC5)sc4c3=O)cc2)C1 [Example 50, 6-(2-Cyclopropylethyl)-3-(4-{(R)-3-[(2-methanesulfonylethyl)methylamino]pyrrolidin-1-yl}phenyl)-3H-thieno[3,2-d]pyrimidin-4-one]
2090	COC(C)(C)CCc1cc2ncn(-c3ccc(N4CC[C@@H](N(C)C)C4)cc3)c(=O)c2s1 [Example 57]
1330	CN(C)[C@@H]1CCN(c2ccc(-n3cnc4cc(N5CCCCC5)sc4c3=O)cc2)C1 [Example 65, 3-[4-((R)-3-Dimethylaminopyrrolidin-1-yl)phenyl]-6-piperidin-1-yl-3H-thieno[3,2-d]pyrimidin-4-one]
340	CCCOCc1cc2ncn(-c3ccc(N4CCC(N(C)C)C4)cc3)c(=O)c2s1 (stereo not drawn) [Example 95, 3-[4-(3-Dimethylamino-pyrrolidin-1-yl)-phenyl]-6-propoxymethyl-3H-thieno[3,2-d]pyrimidin-4-one]
600	CN(C)C1CCN(c2ccc(-n3cnc4cc(COCC5CC5)sc4c3=O)cc2)C1 (stereo not drawn) [Example 96, 6-Cyclopropylmethoxymethyl-3-[4-(3-dimethylamino-pyrrolidin-1-yl)-phenyl]-3H-thieno[3,2-d]pyrimidin-4-one]
